Results: patent publication US6677460B1, “Aromatic carboxylic acid bicyclic sulfur compounds” (Idemitsu Kosan Company, Limited, priority 1993, dated 2004)

How the values were obtained:
Format in all cases: in vivo
green foxtail [1] = experiment: Upland soil treatment test (8); conditions: 20th day after spraying
Procedure: (§1) 90 Parts by weight of the above carrier and 10 parts by weight of each of Compounds obtained in the above Preparation Examples were uniformly pulverized and mixed to obtain herbicides. Further, for Herbicide Comparative Examples, comparative herbicides were prepared by uniformly pulverizing and mixing 90 parts by weight of the above carrier and 10 parts by weight of each of the following Compounds x, y, A, B and C.
(§2) (8) Biological Test (Upland Soil Treatment Test, Herbicide Examples 48-52 and Herbicide Comparative Examples 13 and 14)
(§3) Seeds of weeds such as large crabgrass, barnyard brass, green foxtail, cocklebur, velvetleaf and slender amarnth and seeds of corn, wheat and barley were sown in 1/5,000-are Wagner pots filled with upland soil, and covert with upland soil. Then, a predetermined amount of the herbicide prepared in the above (1) was suspended in water and uniformly sprayed onto the soil surface. Thereafter, the plant were grown in the greenhouse, and on the 20th day after the spraying treatment, the herbicide was evaluated for herbicidal efficacy.
(§4) The herbicidal efficacy and the phytotoxicity to crops are shown on the basis of the ratings described in (2) Foliar treatment test.

large crabgrass [2] = experiment: Upland soil treatment test (8); conditions: 20th day after spraying
Procedure: as §1, §2, §3, §4

barnyard grass [3] = experiment: Upland soil treatment test (8); conditions: 20th day after spraying
Procedure: as §1, §2, §3, §4

cocklebur [4] = experiment: Upland soil treatment test (8); conditions: 20th day after spraying
Procedure: as §1, §2, §3, §4

slender amaranth [5] = experiment: Upland soil treatment test (8); conditions: 20th day after spraying
Procedure: as §1, §2, §3, §4

velvetleaf [6] = experiment: Upland soil treatment test (8); conditions: 20th day after spraying
Procedure: as §1, §2, §3, §4

green foxtail [7] = experiment: Foliar treatment test (2); conditions: 20th day after treatment
Procedure: as §1
(§5) (2) Biological Test (Foliar Treatment Test, Herbicide Examples 1 and 2 and Herbicide Comparative Examples 1 and 2)
(§6) Seeds of weeds such as large crabgrass, barnyard grass, green foxtail, cocklebur, velvetleaf and slender amaranth and seeds of corn, wheat and barley were sown in 1/5,000-are Wagner pots filled with upland soil, and covered with upland soil. The seeds were grown in a greenhouse, and at the stage of 1˜2 leaves of these plants, a predetermined amount of the herbicide prepared in the above (1) was suspended in water and uniformly sprayed onto leaf and stalk portions at a rate of 200 liter/10 are. Thereafter, the plants were grown in the greenhouse, and on 20th day after the treatment, the herbicide was evaluated for herbicidal efficacy.
(§7) The herbicidal efficacy and phytotoxcity to crops were shown on the basis of the following ratings.
(§8) The ratio of remaining plant weight to non-treated was determined on the basis of the ratio of remaining plant weight to non-treated=(remaining plant weight in treated plot/remaining plant weight in non-treated plot)×100. This is also applicable to biological tests hereinafter.

large crabgrass [8] = experiment: Foliar treatment test (2); conditions: 20th day after treatment
Procedure: as §1, §5, §6, §7, §8

barnyard grass [9] = experiment: Foliar treatment test (2); conditions: 20th day after treatment
Procedure: as §1, §5, §6, §7, §8

cocklebur [10] = experiment: Foliar treatment test (2); conditions: 20th day after treatment
Procedure: as §1, §5, §6, §7, §8

slender amaranth [11] = experiment: Foliar treatment test (2); conditions: 20th day after treatment
Procedure: as §1, §5, §6, §7, §8

velvetleaf [12] = experiment: Foliar treatment test (2); conditions: 20th day after treatment
Procedure: as §1, §5, §6, §7, §8

green foxtail [13] = experiment: Upland soil treatment test (3); conditions: 20th day after treatment
Procedure: as §1
(§9) (3) Biological Test (Upland Soil Treatment Test, Herbicide Examples 3 and 4 and Herbicide Comparative Examples 3 and 4)
(§10) Seeds of weeds such as large crabgrass, barnyardgrass, green foxtail, cocklebur, velvetleaf and slender amaranth and seeds of corn, wheat and barley were sown in 1/5,000-are Wagner pots filled with upland soil, and covered with upland soil. Then, a predetermined amount of the herbicide prepared in the above (1) was suspended in water and uniformly sprayed onto the soil surface. Thereafter, the plants were grown in the greenhouse, and on 20th day after the treatment, the herbicide was evaluated for herbicidal efficacy.
as §4

large crabgrass [14] = experiment: Upland soil treatment test (3); conditions: 20th day after treatment
Procedure: as §1, §9, §10, §4

barnyard grass [15] = experiment: Upland soil treatment test (3); conditions: 20th day after treatment
Procedure: as §1, §9, §10, §4

cocklebur [16] = experiment: Upland soil treatment test (3); conditions: 20th day after treatment
Procedure: as §1, §9, §10, §4

slender amaranth [17] = experiment: Upland soil treatment test (3); conditions: 20th day after treatment
Procedure: as §1, §9, §10, §4

velvetleaf [18] = experiment: Upland soil treatment test (3); conditions: 20th day after treatment
Procedure: as §1, §9, §10, §4

barnyardgrass = experiment: Foliar treatment test (7); conditions: 20th day after spraying
Procedure: as §1
(§11) (7) Biological Test (Foliar Treatment Test, Herbicide Examples 43-47 and Comparative Examples 11 and 12)
as §6, with “large crabgrass, barnyardgrass, green foxtail,” for “large crabgrass, barnyard grass, green foxtail,”, “stage of 1 to 2 leaves of” for “stage of 1˜2 leaves of”, “200 liter/10 ares. Thereafter, the” for “200 liter/10 are. Thereafter, the”, “and on the 20th day” for “and on 20th day”, “after the spraying treatment, the” for “after the treatment, the”
as §7, §8

green foxtail [19] = experiment: Foliar treatment test (7); conditions: 20th day after spraying
Procedure: as §1, §11
as §6, with “large crabgrass, barnyardgrass, green foxtail,” for “large crabgrass, barnyard grass, green foxtail,”, “stage of 1 to 2 leaves of” for “stage of 1˜2 leaves of”, “200 liter/10 ares. Thereafter, the” for “200 liter/10 are. Thereafter, the”, “and on the 20th day” for “and on 20th day”, “after the spraying treatment, the” for “after the treatment, the”
as §7, §8

large crabgrass [20] = experiment: Foliar treatment test (7); conditions: 20th day after spraying
Procedure: as §1, §11
as §6, with “large crabgrass, barnyardgrass, green foxtail,” for “large crabgrass, barnyard grass, green foxtail,”, “stage of 1 to 2 leaves of” for “stage of 1˜2 leaves of”, “200 liter/10 ares. Thereafter, the” for “200 liter/10 are. Thereafter, the”, “and on the 20th day” for “and on 20th day”, “after the spraying treatment, the” for “after the treatment, the”
as §7, §8

cocklebur [21] = experiment: Foliar treatment test (7); conditions: 20th day after spraying
Procedure: as §1, §11
as §6, with “large crabgrass, barnyardgrass, green foxtail,” for “large crabgrass, barnyard grass, green foxtail,”, “stage of 1 to 2 leaves of” for “stage of 1˜2 leaves of”, “200 liter/10 ares. Thereafter, the” for “200 liter/10 are. Thereafter, the”, “and on the 20th day” for “and on 20th day”, “after the spraying treatment, the” for “after the treatment, the”
as §7, §8

slender amaranth [22] = experiment: Foliar treatment test (7); conditions: 20th day after spraying
Procedure: as §1, §11
as §6, with “large crabgrass, barnyardgrass, green foxtail,” for “large crabgrass, barnyard grass, green foxtail,”, “stage of 1 to 2 leaves of” for “stage of 1˜2 leaves of”, “200 liter/10 ares. Thereafter, the” for “200 liter/10 are. Thereafter, the”, “and on the 20th day” for “and on 20th day”, “after the spraying treatment, the” for “after the treatment, the”
as §7, §8

velvetleaf [23] = experiment: Foliar treatment test (7); conditions: 20th day after spraying
Procedure: as §1, §11
as §6, with “large crabgrass, barnyardgrass, green foxtail,” for “large crabgrass, barnyard grass, green foxtail,”, “stage of 1 to 2 leaves of” for “stage of 1˜2 leaves of”, “200 liter/10 ares. Thereafter, the” for “200 liter/10 are. Thereafter, the”, “and on the 20th day” for “and on 20th day”, “after the spraying treatment, the” for “after the treatment, the”
as §7, §8
Further: ranges in brackets are in %.

CCn1ncc(C(=O)c2ccc(S(C)(=O)=O)cc2C)c1O [y, reference compound]
0 (81-100): Herbicidal Efficacy cocklebur (cocklebur [4]; 300 g a.i./hectare) | Herbicidal Efficacy slender amaranth (slender amaranth [5]; 300 g a.i./hectare) | Herbicidal Efficacy velvetleaf (velvetleaf [6]; 300 g a.i./hectare) | Herbicidal Efficacy green foxtail (green foxtail [7]; dosage 3 g a.i./are) | Herbicidal Efficacy large crabgrass (large crabgrass [8]; dosage 3 g a.i./are) | Herbicidal Efficacy barnyard grass (barnyard grass [9]; dosage 3 g a.i./are) | Herbicidal Efficacy cocklebur (cocklebur [16]; dosage 3 g a.i./are) | Herbicidal Efficacy slender amaranth (slender amaranth [17]; dosage 3 g a.i./are) | Herbicidal Efficacy velvetleaf (velvetleaf [18]; dosage 3 g a.i./are) | Herbicidal Efficacy barnyard grass (barnyardgrass; 300 g a.i./hectare) | Herbicidal Efficacy green foxtail (green foxtail [19]; 300 g a.i./hectare) | Herbicidal Efficacy large crabgrass (large crabgrass [20]; 300 g a.i./hectare)
3 (21-40): Herbicidal Efficacy large crabgrass (large crabgrass [2]; 300 g a.i./hectare) | Herbicidal Efficacy barnyard grass (barnyard grass [3]; 300 g a.i./hectare) | Herbicidal Efficacy cocklebur (cocklebur [10]; dosage 3 g a.i./are) | Herbicidal Efficacy velvetleaf (velvetleaf [12]; dosage 3 g a.i./are) | Herbicidal Efficacy large crabgrass (large crabgrass [14]; dosage 3 g a.i./are) | Herbicidal Efficacy cocklebur (cocklebur [21]; 300 g a.i./hectare) | Herbicidal Efficacy velvetleaf (velvetleaf [23]; 300 g a.i./hectare)
2 (41-60): Herbicidal Efficacy green foxtail (green foxtail [1]; 300 g a.i./hectare) | Herbicidal Efficacy slender amaranth (slender amaranth [11]; dosage 3 g a.i./are) | Herbicidal Efficacy green foxtail (green foxtail [13]; dosage 3 g a.i./are) | Herbicidal Efficacy barnyard grass (barnyard grass [15]; dosage 3 g a.i./are) | Herbicidal Efficacy slender amaranth (slender amaranth [22]; 300 g a.i./hectare)

Pyrazolate [x, reference compound]
0 (81-100): Herbicidal Efficacy green foxtail (green foxtail [1]; 1000 g a.i./hectare) | Herbicidal Efficacy large crabgrass (large crabgrass [2]; 1000 g a.i./hectare) | Herbicidal Efficacy barnyard grass (barnyard grass [3]; 1000 g a.i./hectare) | Herbicidal Efficacy cocklebur (cocklebur [4]; 1000 g a.i./hectare) | Herbicidal Efficacy velvetleaf (velvetleaf [6]; 1000 g a.i./hectare) | Herbicidal Efficacy green foxtail (green foxtail [7]; dosage 10 g a.i./are) | Herbicidal Efficacy large crabgrass (large crabgrass [8]; dosage 10 g a.i./are) | Herbicidal Efficacy barnyard grass (barnyard grass [9]; dosage 10 g a.i./are) | Herbicidal Efficacy cocklebur (cocklebur [10]; dosage 10 g a.i./are) | Herbicidal Efficacy velvetleaf (velvetleaf [12]; dosage 10 g a.i./are) | Herbicidal Efficacy green foxtail (green foxtail [13]; dosage 10 g a.i./are) | Herbicidal Efficacy large crabgrass (large crabgrass [14]; dosage 10 g a.i./are) | Herbicidal Efficacy barnyard grass (barnyard grass [15]; dosage 10 g a.i./are) | Herbicidal Efficacy cocklebur (cocklebur [16]; dosage 10 g a.i./are) | Herbicidal Efficacy slender amaranth (slender amaranth [17]; dosage 10 g a.i./are) | Herbicidal Efficacy velvetleaf (velvetleaf [18]; dosage 10 g a.i./are) | Herbicidal Efficacy barnyard grass (barnyardgrass; 1000 g a.i./hectare) | Herbicidal Efficacy green foxtail (green foxtail [19]; 1000 g a.i./hectare) | Herbicidal Efficacy large crabgrass (large crabgrass [20]; 1000 g a.i./hectare) | Herbicidal Efficacy cocklebur (cocklebur [21]; 1000 g a.i./hectare) | Herbicidal Efficacy slender amaranth (slender amaranth [22]; 1000 g a.i./hectare) | Herbicidal Efficacy velvetleaf (velvetleaf [23]; 1000 g a.i./hectare)
1 (61-80): Herbicidal Efficacy slender amaranth (slender amaranth [5]; 1000 g a.i./hectare) | Herbicidal Efficacy slender amaranth (slender amaranth [11]; dosage 10 g a.i./are)
